# Entries after “also recorded” stand apart in the source; their conditions may differ.
# Tested on: MDA-MB-231 cells
# Experiment: MDA-MB-231 proliferation culture, cell counts with cisplatin and/or EMF exposure
# Type: cell-based, human
# Conditions: for reduction of cell number (cell count): cisplatin 20 μM, positive control, no EMF exposure, 5 days culture
# Experimental: MDA-MB-231 cells, a human triple-negative breast cancer cell line, were obtained at passage 40 (Sigma: 92020424). The culture media used was high glucose DMEM (Gibco: 31053-028) supplemented with 1% GlutaMAX™ (Gibco: 35050-061) and 10% fetal bovine serum (Gibco).
# Cells were thawed from frozen (−150° C.), placed in a tube with warm media and spun down for 5 minutes at 240×g. After pelleting the cells, the media was removed, and the cells resuspended and seeded into a T225 flask with 45 mL of media. Cells were placed in an incubator set to 37° C. and 5.0% CO2. Media was exchanged every 2-3 days. Cells proliferated until they reached 80-90% confluency. Upon reaching this threshold. cells were passaged. Cells were washed with DPBS and detached using TrypLE Express (Gibco). The detached cells were neutralized, centrifuged, and seeded in culture vessels at a density of 10,000 cells/cm^2.
# For experimental harvests cells were detached as when passaging and neutralized with media. A 100 μL aliquot was taken and used for cell counts. Cells were counted on a NC-200 Nucleocounter (ChemoMetec). The remaining dissociated cells were centrifuged for 2 minutes at 4000 RPM. Following centrifugation, the supernatant was aspirated, and the cell pellets were immediately frozen at −80° C. for future RNA extraction.
# Cisplatin is a platinum-based chemotherapy drug that inhibits DNA synthesis. Cisplatin is used in the treatment of many cancers, including breast cancer. Cisplatin (Millipore-Sigma: 232120) was dissolved in DPBS with 140 mM NaCl at a concentration of 1 mg/mL and stored at room temperature, protected from light. The solution was further diluted in culture media to obtain the desired concentration for experiments. DPBS with 140 mM NaCl was used as a vehicle control. Cisplatin at 20 μM was used as a positive control as this concentration reduced the cell number by more than 90%. Lower concentrations of 2 μM and 0.667 μM (one tenth and one thirtieth the concentration of the positive control, respectively) were used in combination with PEMF stimulation.
# Cells were exposed, as previously described for mesenchymal stem cells, to a spatially uniform, time-varying magnetic field using Helmholtz coils. A description of the exposure system (coils, signal generator, incubators, etc.) is described in Example One.
# Table 3 contains the parameters describing four different fields covering a wide range of shapes, intensities and frequencies. The two sinusoids are simple sine waves with no offset. The pulse waveform has a 10% duty cycle, creating sudden, large changes in the field's magnetic flux density (B). Finally, Experiment 4 consists of pairs of triangular waves with increasing separation equivalent to a decreasing frequency from 36 Hz to 10 Hz. The waveform consists of 15 pairs and has a period of approximately 900 ms. Positive results with Experiments 3 and 4 (described below) ledto repeating the exposures with the addition of a chemotherapy drug cisplatin). Additionally, Experiments 3 and 4 were also performed with “healthy” chondrocytes.
# Chemotherapy drugs, including cisplatin, are a commonplace and proven method of treating cancer tumours despite a plethora of side effects. Large doses of these drugs can be a significant monetary and health concern for many patients so any method of reducing the dosage with an adjunct therapy is welcome. To test the combined effect of cisplatin and EMF exposure, two low concentrations (2 μM and 0.667 μM) of cisplatin were added to the culture media of MDA-MB-231 cells subjected to Experiment 3 and 4 exposures. Additionally, cells were cultured with 20 μM of cisplatin and no exposure as a “positive” control. […] The exposed cell groups are plotted relative to the unstimulated vehicle sample and when cultured with the vehicle show the same decrease in cell count as in Figure H (without vehicle). […]
smiles,measurement,setting,value
"N.N.[Cl][Pt][Cl] [cisplatin, Cisplatin]",effect on cell growth of adding EMF exposure to cisplatin,"cisplatin 2 μM and 0.667 μM plus EMF exposure Experiment 3 or 4, statistically significant vs cisplatin alone",further inhibited
same,effect on proliferation / cell count,"cisplatin 20 μM (high concentration), no EMF stimulation",drastic impact on the cell count; also recorded: inhibitory
same,reduction of cell number (cell count),,90%
same,reduction of cell number (cell count),listed as Cisplatin,more than 90%
same,reduction of cell counts by combined treatment (cisplatin + EMF exposure),"cisplatin at 10% of positive control concentration (2 μM) with EMF exposure (Experiment 3 or 4), relative to negative control, 5 days",more than 80%
same,effect on normalized cell count,"low concentrations of cisplatin (2 μM and 0.667 μM), relative to unstimulated vehicle",significantly lowered cell counts

# Source: US20240416137A1, “PERSONALIZED BIOELECTROMAGNETIC THERAPEUTICS” (OCTANE INNOVATION INC., priority 2021, published 2024)
